According to patent US9174994B2, “Enhanced treatment regimens using mTor inhibitors” (INTELLIKINE LLC, priority 2011, dated 2015):

Test: Phase I clinical trial: treatment-emergent adverse events (patients, n (%)), dose limiting toxicity, MTD
Format: in vivo
Experimental: Safety, maximum tolerated dose (MTD), pharmacokinetics (PK) and preliminary antitumor activity were evaluated.
Pharmacodynamic (PD) endpoints were evaluated in surrogate (peripheral blood cells [PBCs], skin) and tumor tissues for the phosphorylation of TORC1-dependent markers (4EBP1/S6), and TORC2-dependent markers (AKT/PRAS40).

Q: What does the source list for `CC(C)n1nc(-c2ccc3oc(N)nc3c2)c2c(N)ncnc21` [compound A]?
A: Asthenia (15 mg/week (N = 3)): 0 (0%); Blood creatinine increased (15 mg/week (N = 3)): 1 (33%); Blood triglycerides increased (15 mg/week (N = 3)): 1 (33%); DIARRHEA (15 mg/week (N = 3)): 0 (0%); Decreased appetite (15 mg/week (N = 3)): 0 (0%); Diarrhoea (15 mg/week (N = 3)): 0 (0%); Dysgeusia (15 mg/week (N = 3)): 0 (0%); Dyspepsia (15 mg/week (N = 3)): 0 (0%); HYPERGLYCEMIA (15 mg/week (N = 3)): 0 (0%); Hyperglycaemia (15 mg/week (N = 3)): 2 (67%); Lymphopenia (15 mg/week (N = 3)): 0 (0%); Malaise (15 mg/week (N = 3)): 0 (0%); Mucosal inflammation (15 mg/week (N = 3)): 0 (0%); Muscle spasms (15 mg/week (N = 3)): 0 (0%); Nausea (15 mg/week (N = 3)): 2 (67%); Oral discomfort (15 mg/week (N = 3)): 0 (0%); Patients Reporting at Least One Related TEAE (15 mg/week (N = 3)): 3; Pruritus (15 mg/week (N = 3)): 0 (0%); RASH (15 mg/week (N = 3)): 0 (0%); Rash (15 mg/week (N = 3)): 0 (0%); Vomiting (15 mg/week (N = 3)): 0 (0%); WEAKNESS (15 mg/week (N = 3)): 0 (0%); Alanine aminotransferase increased (16 mg/3 W, QDx3d QW (N = 3)): 0 (0%); Asthenia (16 mg/3 W, QDx3d QW (N = 3)): 1 (33%); Catheter site inflammation (16 mg/3 W, QDx3d QW (N = 3)): 0 (0%); Catheter site pain (16 mg/3 W, QDx3d QW (N = 3)): 0 (0%); Decreased appetite (16 mg/3 W, QDx3d QW (N = 3)): 0 (0%); Diarrhoea (16 mg/3 W, QDx3d QW (N = 3)): 1 (33%); Dry skin (16 mg/3 W, QDx3d QW (N = 3)): 0 (0%); Dysgeusia (16 mg/3 W, QDx3d QW (N = 3)): 0 (0%); Dyspnoea (16 mg/3 W, QDx3d QW (N = 3)): 0 (0%); Fatigue (16 mg/3 W, QDx3d QW (N = 3)): 1 (33%); Headache (16 mg/3 W, QDx3d QW (N = 3)): 1 (33%); Hyperbilirubinaemia (16 mg/3 W, QDx3d QW (N = 3)): 0 (0%); Hypercholesterolaemia (16 mg/3 W, QDx3d QW (N = 3)): 0 (0%); Hyperglycaemia (16 mg/3 W, QDx3d QW (N = 3)): 2 (67%); Hypertransaminasaemia (16 mg/3 W, QDx3d QW (N = 3)): 0 (0%); Hypertriglyceridaemia (16 mg/3 W, QDx3d QW (N = 3)): 0 (0%); Hypomagnesaemia (16 mg/3 W, QDx3d QW (N = 3)): 0 (0%); Hypotension (16 mg/3 W, QDx3d QW (N = 3)): 0 (0%); Low fever (16 mg/3 W, QDx3d QW (N = 3)): 1 (33%); Lymphopenia (16 mg/3 W, QDx3d QW (N = 3)): 0 (0%); Mucosal inflammation (16 mg/3 W, QDx3d QW (N = 3)): 2 (67%); Nausea (16 mg/3 W, QDx3d QW (N = 3)): 0 (0%); Palmar-plantar erythrodysaesthesia syndrome (16 mg/3 W, QDx3d QW (N = 3)): 0 (0%); Patients Reporting at Least One Related TEAE (16 mg/3 W, QDx3d QW (N = 3)): 2 (67%); Platelet count decreased (16 mg/3 W, QDx3d QW (N = 3)): 0 (0%); Pruritus (16 mg/3 W, QDx3d QW (N = 3)): 0 (0%); Pyrexia (16 mg/3 W, QDx3d QW (N = 3)): 1 (33%); Rash (16 mg/3 W, QDx3d QW (N = 3)): 0 (0%); Rash macular (16 mg/3 W, QDx3d QW (N = 3)): 0 (0%); Urinary tract infection (16 mg/3 W, QDx3d QW (N = 3)): 0 (0%); Vomiting (16 mg/3 W, QDx3d QW (N = 3)): 0 (0%); Asthenia (16 mg/3 W, QDx3d QW (N = 3), 2nd Asthenia line): 1 (33%); Dose limiting toxicity (20 mg Q3D): Muco-; ASTHENIA (20 mg/week (N = 3)): 0 (0%); ATHENIA (20 mg/week (N = 3)): 0 (0%); Alanine aminotransferase increased (20 mg/week (N = 3)): 0 (0%); Aspartate aminotransferase increased (20 mg/week (N = 3)): 0 (0%); Asthenia (20 mg/week (N = 3)): 2 (67%); Blood creatinine increased (20 mg/week (N = 3)): 0 (0%); Blood triglycerides increased (20 mg/week (N = 3)): 0 (0%); DIARRHEA (20 mg/week (N = 3)): 0 (0%); Decreased appetite (20 mg/week (N = 3)): 1 (33%); Diarrhoea (20 mg/week (N = 3)): 2 (67%); Dysgeusia (20 mg/week (N = 3)): 0 (0%); Dyspepsia (20 mg/week (N = 3)): 1 (33%); HYPERGLYCEMIA (20 mg/week (N = 3)): 0 (0%); Hyperglycaemia (20 mg/week (N = 3)): 1 (33%); Lymphopenia (20 mg/week (N = 3)): 0 (0%); Malaise (20 mg/week (N = 3)): 0 (0%); Mucosal inflammation (20 mg/week (N = 3)): 2 (67%); Muscle spasms (20 mg/week (N = 3)): 1 (33%); Nausea (20 mg/week (N = 3)): 2 (67%); Oral discomfort (20 mg/week (N = 3)): 0 (0%); Patients Reporting at Least One Related TEAE (20 mg/week (N = 3)): 2 (67%); Pruritus (20 mg/week (N = 3)): 1 (33%); RASH (20 mg/week (N = 3)): 0 (0%); Rash (20 mg/week (N = 3)): 1 (33%); Vomiting (20 mg/week (N = 3)): 1 (33%); WEAKNESS (20 mg/week (N = 3)): 0 (0%); ASTHENIA (30 mg/week (N = 3)): 1 (33%); ATHENIA (30 mg/week (N = 3)): 1 (33%); Alanine aminotransferase increased (30 mg/week (N = 3)): 0 (0%); Aspartate aminotransferase increased (30 mg/week (N = 3)): 0 (0%); Asthenia (30 mg/week (N = 3)): 0 (0%); Blood creatinine increased (30 mg/week (N = 3)): 0 (0%); Blood triglycerides increased (30 mg/week (N = 3)): 0 (0%); DIARRHEA (30 mg/week (N = 3)): 1 (33%); Decreased appetite (30 mg/week (N = 3)): 0 (0%); Diarrhoea (30 mg/week (N = 3)): 0 (0%); Dysgeusia (30 mg/week (N = 3)): 0 (0%); Dyspepsia (30 mg/week (N = 3)): 0 (0%); HYPERGLYCEMIA (30 mg/week (N = 3)): 2 (67%); Hyperglycaemia (30 mg/week (N = 3)): 0 (0%); Lymphopenia (30 mg/week (N = 3)): 0 (0%); Malaise (30 mg/week (N = 3)): 1 (33%); Mucosal inflammation (30 mg/week (N = 3)): 1 (33%); Muscle spasms (30 mg/week (N = 3)): 0 (0%); Nausea (30 mg/week (N = 3)): 3; Oral discomfort (30 mg/week (N = 3)): 0 (0%); Patients Reporting at Least One Related TEAE (30 mg/week (N = 3)): 3; Pruritus (30 mg/week (N = 3)): 0 (0%); RASH (30 mg/week (N = 3)): 1 (33%); Rash (30 mg/week (N = 3)): 0 (0%); Vomiting (30 mg/week (N = 3)): 1 (33%); WEAKNESS (30 mg/week (N = 3)): 1 (33%); Dose limiting toxicity (40 mg QW): As-
